Patent US6407094B1, “Glutamate receptor antagonists” (Hoffmann-la Roche Inc., priority 1999, dated 2002)

Legend:
rat mGlu2 receptor = molecular target: T1, rat mGlu2 receptor (Rattus norvegicus, UniProt P31421); experiment: [3H]-LY354740 binding on mGlu2 transfected CHO cell membranes
T1 construct: expressed in transfected cells; host or cells: CHO cells, stably transfected with pcD1mGR2 (pcDNA I-amp), G-418 selected; membranes used
T1 sequence (P31421 19-872): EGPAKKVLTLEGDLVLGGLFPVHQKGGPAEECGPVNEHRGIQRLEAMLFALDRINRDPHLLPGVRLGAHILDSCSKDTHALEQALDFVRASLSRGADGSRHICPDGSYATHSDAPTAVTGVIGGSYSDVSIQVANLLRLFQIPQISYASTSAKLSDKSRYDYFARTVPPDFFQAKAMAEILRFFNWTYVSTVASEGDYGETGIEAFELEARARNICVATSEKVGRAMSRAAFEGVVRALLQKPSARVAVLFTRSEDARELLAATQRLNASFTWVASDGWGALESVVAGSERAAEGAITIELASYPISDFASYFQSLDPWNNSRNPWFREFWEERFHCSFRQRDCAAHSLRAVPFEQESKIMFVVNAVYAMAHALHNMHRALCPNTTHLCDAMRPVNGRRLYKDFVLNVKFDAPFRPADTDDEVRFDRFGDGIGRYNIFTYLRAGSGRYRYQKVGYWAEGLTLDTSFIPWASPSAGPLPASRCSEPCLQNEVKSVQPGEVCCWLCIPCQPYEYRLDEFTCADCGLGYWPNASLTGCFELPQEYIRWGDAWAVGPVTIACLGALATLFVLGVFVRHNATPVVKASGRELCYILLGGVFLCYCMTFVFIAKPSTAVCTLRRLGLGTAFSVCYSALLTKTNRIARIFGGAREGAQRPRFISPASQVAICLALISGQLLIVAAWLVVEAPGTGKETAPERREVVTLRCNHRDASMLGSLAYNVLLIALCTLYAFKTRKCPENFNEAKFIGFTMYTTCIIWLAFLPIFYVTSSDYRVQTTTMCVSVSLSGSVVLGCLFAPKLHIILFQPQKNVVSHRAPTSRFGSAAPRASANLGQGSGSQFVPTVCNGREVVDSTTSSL

With `N#Cc1cccc(C2=Nc3cc(OCC4COC(=O)O4)c(C#Cc4ccccc4)cc3NC(=O)C2)c1` (racemic) [Example 28, [RS]-3-[4-Oxo-8-(2-oxo-[1,3]dioxolan-4-ylmethoxy)-7-phenylethynyl-4,5-dihydro-3H-benzo[b][1,4]diazepin-2-yl]-benzonitrile] the Ki (rat mGlu2 receptor) was 35 nM and the melting point was 222 °C (dec.).
In the case of `N#Cc1cccc(C2=Nc3cc(Cl)c(-c4ccccc4)cc3NC(=O)C2)c1` [Example 7, 3-(8-Chloro-4-oxo-7-phenyl-4,5-dihydro-3H-benzo[b][1,4]diazepin-2-yl)-benzonitrile], the Ki (rat mGlu2 receptor) is reported as 120 nM and the melting point is reported as 242 to 244 °C (dec.).
In the case of `COC(=O)CSc1cc2c(cc1C#Cc1ccccc1)NC(=O)CC(c1cccc(C#N)c1)=N2` [Example 12, [4-(3-Cyano-phenyl)-2-oxo-8-phenylethynyl-2,3-dihydro-1H-benzo[b][1,4]diazepin-7-ylsulfanyl]-acetic acid methyl ester], the Ki (rat mGlu2 receptor) is reported as 51 nM and the melting point is reported as 201 °C (dec.).
For `N#Cc1cccc(C2=Nc3cc(CC(N)=O)c(C#Cc4ccccc4)cc3NC(=O)C2)c1` [Example 17, 2-[4-(3-Cyano-phenyl)-2-oxo-8-phenylethynyl-2,3-dihydro-1H-benzo[b][1,4]diazepin-7-yl]-acetamide], the Ki (rat mGlu2 receptor) was 37 nM and the melting point was 250 °C (dec.).
With `COc1cc2c(cc1C#Cc1ccccc1)NC(=O)CC(c1cccc(C#N)c1)=N2` [Example 20, 3-(8-Methoxy-4-oxo-7-phenylethynyl-4,5-dihydro-3H-benzo[b][1,4]diazepin-2-yl)-benzonitrile] the Ki (rat mGlu2 receptor) was 46 nM and the melting point was greater than 250 °C.
In the case of `N#CCc1cc2c(cc1C#Cc1ccccc1)NC(=O)CC(c1cccc(C#N)c1)=N2` [Example 23, 3-(8-Cyanomethyl-4-oxo-7-phenylethynyl-4,5-dihydro-3H-benzo[b][1,4]diazepin-2-yl)-benzonitrile], the Ki (rat mGlu2 receptor) is reported as 16 nM and the melting point is reported as 262 °C (dec.).
In the case of `COCCOc1cc2c(cc1C#Cc1ccccc1)NC(=O)CC(c1cccc(I)c1)=N2` [Example 25], the Ki (rat mGlu2 receptor) is reported as 21 nM and the melting point is reported as 192 °C (dec.).
In the case of `COCCOc1cc2c(cc1C#Cc1ccccc1)NC(=O)CC(c1cccc(-n3ccnc3)c1)=N2` [Example 27, 4-(3-Imidazol-1-yl-phenyl)-7-(2-methoxy-ethoxy)-8-phenylethynyl-1,3-dihydro-benzo[b][1,4]diazepin-2-one], the Ki (rat mGlu2 receptor) is reported as 12 nM and the melting point is reported as 187 to 189 °C.
Molecule `O=C1CC(c2cccc(-n3ccnc3)c2)=Nc2cc(CO)c(C#Cc3ccccc3)cc2N1` [Example 32, 7-Hydroxymethyl-4-(3-imidazol-1-yl-phenyl)-8-phenylethynyl-1,3-dihydro-benzo[b][1,4]diazepin-2-one] has a Ki (rat mGlu2 receptor) of 18 nM and a melting point of 227 °C.
In the case of `O=C1CC(c2cccc(-n3ccnc3)c2)=Nc2cc(CO)c(C#Cc3ccc(F)cc3)cc2N1` [Example 37, 8-(4-Fluoro-phenylethynyl)-7-hydroxymethyl-4-(3-imidazol-1-yl-phenyl)-1,3-dihydro-benzo[b][1,4]diazepin-2-one], the Ki (rat mGlu2 receptor) is reported as 9 nM and the melting point is reported as 234 °C (dec.).
`O=C1CC(c2cccc(-n3ccnc3)c2)=Nc2cc(OCCO)c(C#Cc3ccccc3)cc2N1` [Example 42, 7-(2-Hydroxy-ethoxy)-4-(3-imidazol-1-yl-phenyl)-8-phenylethynyl-1,3-dihydro-benzo[b][1,4]diazepin-2-one] showed a Ki (rat mGlu2 receptor) of 32 nM and a melting point of 224 to 227 °C.
`O=C1CC(c2cccc(-n3ccnc3)c2)=Nc2cc(N3CCC(OCCO)CC3)c(-c3ccc(F)cc3)cc2N1` [Example 45, 8-(4-Fluoro-phenyl)-7-[4-(2-hydroxy-ethoxy)-piperidin-1-yl]-4-(3-imidazol-1-yl-phenyl)-1,3-dihydro-benzo[b][1,4]diazepin-2-one] showed a Ki (rat mGlu2 receptor) of 100 nM and a melting point of 225 to 227 °C.
Molecule `O=C1CC(c2cccc(-n3ccnc3)c2)=Nc2cc(O)c(-c3ccc(F)cc3)cc2N1` [Example 61, 8-(4-Fluoro-phenyl)-7-hydroxy-4-(3-imidazol-1-yl-phenyl)-1,3-dihydro-benzo[b][1,4]diazepin-2-one] has a Ki (rat mGlu2 receptor) of 7 nM and a melting point of 250 °C.
`COc1cc2c(cc1-c1ccccc1F)NC(=O)CC(c1cccc(-n3ccnc3C)c1)=N2` [Example 68, 8-(2-Fluoro-phenyl)-7-methoxy-4-[3-(2-methyl-imidazol-1-yl)-phenyl]-1,3-dihydro-benzo[b][1,4]diazepin-2-one] showed a Ki (rat mGlu2 receptor) of 138 nM and a melting point of 220 to 222 °C.
In the case of `COc1cc2c(cc1-c1ccccc1F)NC(=O)CC(c1ccc(C#N)s1)=N2` [Example 69], the Ki (rat mGlu2 receptor) is reported as 168 nM and the melting point is reported as greater than 250 °C.
Work on `COc1cc2c(cc1-c1ccccc1F)NC(=O)CC(c1ccnc(C#N)c1)=N2` [Example 71, 4-[7-(2-Fluoro-phenyl)-8-methoxy-4-oxo-4,5-dihydro-3H-benzo[b][1,4]diazepin-2-yl)-pyridine-2-carbonitrile] yielded a Ki (rat mGlu2 receptor) of 33 nM and a melting point of 240 to 242 °C.
`O=C1CC(c2cccc(-n3ccnn3)c2)=Nc2cc(O)c(-c3ccccc3F)cc2N1` [Example 75, 8-(2-Fluoro-phenyl)-7-hydroxy-4-(3-[1,2,3]triazol-1-yl-phenyl)-1,3-dihydro-benzo[b][1,4]diazepin-2-one] showed a Ki (rat mGlu2 receptor) of 28 nM and a melting point greater than 250 °C.
`Cc1nccn1-c1cccc(C2=Nc3cc(O)c(-c4ccccc4F)cc3NC(=O)C2)c1` [Example 79, 8-(2-Fluoro-phenyl)-7-hydroxy-4-[3-(2-methyl-imidazol-1-yl)-phenyl]-1,3-dihydro-benzo[b][1,4]diazepin-2-one] gave a Ki (rat mGlu2 receptor) of 108 nM and a melting point greater than 250 °C.
Molecule `CSc1nccn1-c1cccc(C2=Nc3cc(O)c(-c4ccccc4F)cc3NC(=O)C2)c1` [Example 81, 8-(2-Fluoro-phenyl)-7-hydroxy-4-[3-(2-methylsulfanyl-imidazol-1-yl)-phenyl]-1,3-dihydro-benzo[b][1,4]diazepin-2-one] has a Ki (rat mGlu2 receptor) of 21 nM and a melting point greater than 250 °C.
With `COc1cc2c(cc1-c1cc(F)ccc1F)NC(=O)CC(c1cccc(-n3ccnn3)c1)=N2` [Example 83, 8-(2,5-Difluoro-phenyl)-7-methoxy-4-(3-[1,2,3]triazol-1-yl-phenyl)-1,3-dihydro-benzo[b][1,4]diazepin-2-one] the Ki (rat mGlu2 receptor) was 12 nM and the melting point was 241 °C.
For `Cc1cc(-c2cccc(C3=Nc4cc(O)c(-c5ccccc5F)cc4NC(=O)C3)c2)on1` [Example 89, 8-(2-Fluoro-phenyl)-7-hydroxy-4-[3-(3-methyl-isoxazol-5-yl)-phenyl]-1,3-dihydro-benzo[b][1,4]diazepin-2-one], the Ki (rat mGlu2 receptor) was 15 nM and the melting point was 237 °C.
In the case of `N#Cc1cccc(C2=Nc3cc(O)c(-c4cc(F)ccc4F)cc3NC(=O)C2)c1` [Example 90, 3-[7-(2,5-Difluoro-phenyl)-8-hydroxy-4-oxo-4,5-dihydro-3H-benzo[b][1,4]diazepin-2-yl]-benzonitrile], the Ki (rat mGlu2 receptor) is reported as 6 nM and the melting point is reported as greater than 250 °C.
Molecule `O=C1CC(c2cccc(-n3ccnc3)c2)=Nc2cc(O)c(C#Cc3ccc(F)cc3)cc2N1` [Example 91, 8-(4-Fluoro-phenylethynyl)-7-hydroxy-4-(3-imidazol-1-yl-phenyl)-1,3-dihydro-benzo[b][1,4]diazepin-2-one] has a Ki (rat mGlu2 receptor) of 13 nM and a melting point of 247 °C.
